ChEMBL document CHEMBL3120117, “Synthesis and antitumor activity evaluation of chrysin derivatives” (Eur J Med Chem, 2014)

Key:
H22 [1] = experiment: Cytotoxicity against mouse H22 cells assessed as growth inhibition by MTT assay; assay type: functional, cell-based
H22 [2] = experiment: Cytotoxicity against mouse H22 cells assessed as growth inhibition by MTT assay relative to chrysin; assay type: functional
H22 [3] = experiment: Cell cycle arrest in mouse H22 cells assessed as accumulation at G2/M phase at 1 mmol/l after 24 hrs by propidium iodide staining based flow cytometry (reference value: 15.42 +/-0.33%); assay type: functional
H22 [4] = experiment: Cell cycle arrest in mouse H22 cells assessed as accumulation at S phase at 1 mmol/l after 24 hrs by propidium iodide staining based flow cytometry (reference value: 70.21 +/-0.38%); assay type: functional
H22 [5] = experiment: Cell cycle arrest in mouse H22 cells assessed as accumulation at G1 phase at 1 mmol/l after 24 hrs by propidium iodide staining based flow cytometry (reference value: 14.38 +/-0.54%); assay type: functional

SMILES | IC50 (H22 [1]) | growth inhibition (GI) (H22 [2]) | Activity (H22 [3]) | Activity (H22 [4]) | Activity (H22 [5])
O=C(Oc1cc(OC(=O)c2ccccc2)c2c(=O)cc(-c3ccccc3)oc2c1)c1ccccc1 | 3.66 mM |  |  |  | 
CC(=O)Oc1cc(OC(C)=O)c2c(=O)cc(-c3ccccc3)oc2c1 [CHRYSIN DIACETATE] | 0.141 mM | 91.56% | 36.34% | 57.44% | 6.22%
CC(=O)Oc1cc(O)c2c(=O)cc(-c3ccccc3)oc2c1 | 4.29 mM |  |  |  | 
CCOC(=O)COc1cc(OCC(=O)OCC)c2c(=O)cc(-c3ccccc3)oc2c1 | 4.03 mM |  |  |  | 
O=C(O)COc1cc(O)cc2oc(-c3ccccc3)cc(=O)c12 | 2.47 mM |  |  |  | 
CCOC(=O)COc1cc(OC(=O)c2ccccc2)cc2oc(-c3ccccc3)cc(=O)c12 | 3.22 mM |  |  |  | 
O=C(Oc1cc(O)c2c(=O)cc(-c3ccccc3)oc2c1)c1ccccc1 | 1.71 mM |  |  |  | 
O=c1cc(-c2ccccc2)oc2cc(O)cc(O)c12 [CHRYSIN] | 1.67 mM |  | 17.13% | 69.91% | 12.97%
O=C(O)COc1cc(OCC(=O)O)c2c(=O)cc(-c3ccccc3)oc2c1 [FLAVODIC ACID] | 3.12 mM |  |  |  | 
